Each block holds one molecule with its values, some of them ahead of it.
Key:
Na^+ /H^+ exchanger = biological target: T1, Na^+ /H^+ exchanger (Oryctolagus cuniculus, UniProt P23791); experiment: Inhibition of the Na+/H+ exchanger of rabbit erythrocytes (amiloride-sensitive sodium influx, flame photometry); assay type: cell-based, rabbit (White New Zealand); details: 37° C., pH 7.4, hyperosmolar salt-sucrose medium
T1 construct: endogenous in cells; host or cells: rabbit erythrocytes (whole blood of cholesterol-fed White New Zealand rabbits)
T1 sequence (P23791 whole entry): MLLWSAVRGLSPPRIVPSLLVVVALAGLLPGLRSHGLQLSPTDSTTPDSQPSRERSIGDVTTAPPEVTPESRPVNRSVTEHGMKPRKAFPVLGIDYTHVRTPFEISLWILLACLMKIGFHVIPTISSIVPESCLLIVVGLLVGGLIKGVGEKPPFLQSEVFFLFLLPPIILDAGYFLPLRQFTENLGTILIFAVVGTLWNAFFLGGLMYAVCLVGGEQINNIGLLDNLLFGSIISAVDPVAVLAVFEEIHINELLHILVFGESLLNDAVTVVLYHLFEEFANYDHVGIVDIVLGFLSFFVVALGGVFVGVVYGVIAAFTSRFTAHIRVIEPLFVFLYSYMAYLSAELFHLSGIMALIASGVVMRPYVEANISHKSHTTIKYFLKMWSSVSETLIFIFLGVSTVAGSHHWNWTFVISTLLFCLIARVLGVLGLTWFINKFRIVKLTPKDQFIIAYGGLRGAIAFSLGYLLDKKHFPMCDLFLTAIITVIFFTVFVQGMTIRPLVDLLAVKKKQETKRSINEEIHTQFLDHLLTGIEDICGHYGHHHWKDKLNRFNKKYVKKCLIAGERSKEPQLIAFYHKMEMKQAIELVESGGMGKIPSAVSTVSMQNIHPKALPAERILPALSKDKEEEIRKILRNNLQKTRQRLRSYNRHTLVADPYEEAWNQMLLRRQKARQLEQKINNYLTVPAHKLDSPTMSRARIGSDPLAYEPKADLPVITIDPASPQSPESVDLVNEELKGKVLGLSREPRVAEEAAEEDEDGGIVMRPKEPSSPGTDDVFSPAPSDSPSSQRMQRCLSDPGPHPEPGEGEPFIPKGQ
Text: White New Zealand rabbits (Ivanovas) received a standard diet containing 2% cholesterol for six weeks, in order to activate Na^+ /H^+ exchange and thus to enable the Na^+ influx into the erythrocytes via […] exchange to be determined by flame photometry. The blood was taken from the auricular arteries and made incoagulable by means of 25 IU of potassium heparin. A portion of each sample was used for duplicate determination of the hematocrit by centrifugation. Aliquots of in each case 100 μl were used to measure the initial Na^+ content of the erythrocytes.
In order to determine the amiloride-sensitive sodium influx, 100 μl of each blood sample were incubated at 37° C. and at pH 7.4 in each case in 5 ml of a hyperosmolar salt-sucrose medium (in mmol/l: 140 NaCl, 3 KCl, 150 sucrose, 0.1 ouabain, 20 trishydroxymethylaminomethane). The erythrocytes were then washed three times with ice-cold MgCl2 -ouabain solution (in mmol/l: 112 MgCl2, 0.1 ouabain) and hemolyzed in 2.0 ml of distilled water. The intracellular sodium content was determined by flame photometry.
The net Na^+ influx was calculated from the difference between the initial sodium values and the sodium content of the erythrocytes after incubation. The amiloride-inhibitable sodium influx was given by the difference of the sodium content of the erythrocytes after incubation with and without 3×10^-4 mol/l of amiloride. […]

cardiac arrhythmias = details: cited from earlier work
rat hearts = details: isolated rat hearts, cited from earlier work

IC50 (Na^+ /H^+ exchanger): 0.2 µM
Structure (SMILES): NC(N)=NC(=O)c1ccc(Oc2ccc(F)cc2)c(S(=O)(=O)C(F)(F)F)c1 [Example 1, 4-(4-Fluorophenoxy)-3-trifluoromethylsulfonylbenzoylguanidine]

IC50 (Na^+ /H^+ exchanger): 0.07 µM
Structure (SMILES): CC(C)c1ccc(C(=O)N=C(N)N)cc1S(=O)(=O)C(F)(F)F [Example 2, 4-Isopropyl-3-trifluoromethylsulfonylbenzoylguanidine]

Structure (SMILES): NC(N)=NC(=O)c1nc(Cl)c(N)nc1N [amiloride]
antiarrhythmic effect (cardiac arrhythmias; Circulation 79, 1257-63 (1989)): only weakly pronounced
side-effects accompanying antiarrhythmic effect (cardiac arrhythmias; in vivo): hypotensive and saluretic effects
suppression of artificially induced ventricular fibrillation (rat hearts; Eur. Heart J. 9 (suppl.1): 167 (1988)): completely suppressed

Structure (SMILES): CCN(c1nc(N)c(C(=O)N=C(N)N)nc1Cl)C(C)C [ethylisopropylamiloride]
potency relative to amiloride in ventricular fibrillation model (rat hearts; compared with amiloride): even more potent than amiloride
